Data published in ChEMBL document CHEMBL1201862, “PubChem BioAssay data set” (2004).
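Exposure lasted 48 hours, with cells grown in 96-well plates and compounds tested at five concentrations. GI50 is the concentration that inhibits growth by half.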 The source made the active and inactive calls. Rule as the data show it: active = GI50 up to about 1.1 µM and inactive = higher.

Legend:
Experiment in all cases: NCI-60 cell line screen, 48 h
KM12 = test system: KM12
OVCAR-5 = test system: OVCAR-5
COLO 205 = test system: COLO 205
OVCAR-8 = test system: OVCAR-8
CAKI-1 = test system: CAKI-1
RPMI-8226 = test system: RPMI-8226
HT-29 = test system: HT-29
SK-MEL-5 = test system: SK-MEL-5
NCI-H522 = test system: NCI-H522
HCC 2998 = test system: HCC 2998
U-251 = test system: U-251
EKVX = test system: EKVX
SNB-75 = test system: SNB-75
SF-539 = test system: SF-539
M14 = test system: M14
K562 = test system: K562
NCI-H460 = test system: NCI-H460
Hs-578T = test system: Hs-578T
MDA-N = test system: MDA-N

| Structure (SMILES) | GI50 (KM12) | GI50 (OVCAR-5) | GI50 (COLO 205) | GI50 (OVCAR-8) | GI50 (CAKI-1) | GI50 (RPMI-8226) | GI50 (HT-29) | GI50 (SK-MEL-5) | GI50 (NCI-H522) | GI50 (HCC 2998) | GI50 (U-251) | GI50 (EKVX) | GI50 (SNB-75) | GI50 (SF-539) | GI50 (M14) | GI50 (K562) | GI50 (NCI-H460) | GI50 (Hs-578T) | GI50 (MDA-N) |
| --- | --- | --- | --- | --- | --- | --- | --- | --- | --- | --- | --- | --- | --- | --- | --- | --- | --- | --- | --- |
| O=C(/C=C\c1cccc2ccccc12)c1cccc2ccccc12 | 6.55 µM (inactive) | > 10 µM (inactive) | > 10 µM (inactive) | 5.82 µM (inactive) | 8.07 µM (inactive) | 6.95 µM (inactive) | 5.25 µM (inactive) | 12.7 µM (inactive) | 7.64 µM (inactive) | 13.1 µM (inactive) | 6.34 µM (inactive) | 14.3 µM (inactive) | 5.37 µM (inactive) | 14.3 µM (inactive) | 12.2 µM (inactive) | 4.92 µM (inactive) | 8.65 µM (inactive) |  |  |
| CCN(CC)CCNC(=O)c1nn(C)c(=S)[nH]c1=S | > 100 µM (inactive) | > 100 µM (inactive) | > 100 µM (inactive) | > 100 µM (inactive) | > 100 µM (inactive) | > 100 µM (inactive) | > 100 µM (inactive) | > 100 µM (inactive) | > 100 µM (inactive) | > 100 µM (inactive) | > 100 µM (inactive) | > 100 µM (inactive) | > 100 µM (inactive) | > 100 µM (inactive) | > 100 µM (inactive) | > 100 µM (inactive) | > 100 µM (inactive) |  |  |
| CCOC(OCC)C(CC)[Se]c1ccccc1[N+](=O)[O-] (stereo not given) | 3.06 µM (inactive) | 6.35 µM (inactive) | 2.48 µM (inactive) | 4.48 µM (inactive) | 2.75 µM (inactive) | 3.44 µM (inactive) | 2.39 µM (inactive) | 2.42 µM (inactive) | 1.72 µM (inactive) | 1.56 µM (inactive) | 2.51 µM (inactive) | 5.7 µM (inactive) | 3.45 µM (inactive) | 2.02 µM (inactive) | 1.63 µM (inactive) | 1.93 µM (inactive) | 2.81 µM (inactive) | 3.18 µM (inactive) | 0.352 µM (active) |
| Cc1ccccc1C(CCCO)C(=O)O (stereo not given) | > 100 µM (inactive) | > 100 µM (inactive) | > 100 µM (inactive) | > 100 µM (inactive) | > 100 µM (inactive) | > 100 µM (inactive) | > 100 µM (inactive) | > 100 µM (inactive) | > 100 µM (inactive) | > 10 µM (inactive) | > 100 µM (inactive) | > 100 µM (inactive) | > 100 µM (inactive) | > 100 µM (inactive) | > 100 µM (inactive) | > 100 µM (inactive) | > 100 µM (inactive) |  |  |
| Cc1ccc(S(=O)(=O)N/N=C/c2oc(-c3cccc([N+](=O)[O-])c3)c(-c3cccc([N+](=O)[O-])c3)c2[N+](=O)[O-])cc1 | 36 µM (inactive) | > 100 µM (inactive) | > 100 µM (inactive) | 70.6 µM (inactive) | > 100 µM (inactive) | 24 µM (inactive) | > 100 µM (inactive) | 73.1 µM (inactive) | 15.1 µM (inactive) | > 100 µM (inactive) | 66.5 µM (inactive) | > 100 µM (inactive) | 92.5 µM (inactive) | > 100 µM (inactive) | 51.2 µM (inactive) | 24.9 µM (inactive) | > 100 µM (inactive) |  |  |
| COC(=O)CSc1nc2[nH]c(SC)c(C(N)=O)c2c(=O)n1-c1ccccc1 | > 10 µM (inactive) |  | > 10 µM (inactive) | > 10 µM (inactive) | > 10 µM (inactive) | > 10 µM (inactive) | > 10 µM (inactive) | > 10 µM (inactive) |  | > 10 µM (inactive) |  | > 10 µM (inactive) | > 10 µM (inactive) |  | > 10 µM (inactive) | > 10 µM (inactive) |  |  | > 10 µM (inactive) |
| CCOc1ccccc1NC(=O)C1=C(C)NC(C)=C(C(=O)Nc2ccccc2OCC)C1c1ccc(NC(C)=O)cc1 | 24.8 µM (inactive) | 33.6 µM (inactive) | 16.7 µM (inactive) | 73.5 µM (inactive) | 17.2 µM (inactive) | 47.8 µM (inactive) | 40.6 µM (inactive) | 40.7 µM (inactive) | 6.25 µM (inactive) | 12.3 µM (inactive) | 46.2 µM (inactive) | 38.6 µM (inactive) | 9.75 µM (inactive) | 41.7 µM (inactive) | 29.9 µM (inactive) | 37.1 µM (inactive) | 35.7 µM (inactive) |  |  |
| CCN(CC)C(=O)CCCCCCCCC1CO1 (stereo not given) | > 100 µM (inactive) | > 100 µM (inactive) | > 100 µM (inactive) | > 100 µM (inactive) | > 100 µM (inactive) | > 100 µM (inactive) | > 100 µM (inactive) | > 100 µM (inactive) | > 100 µM (inactive) |  | > 100 µM (inactive) | > 100 µM (inactive) | > 100 µM (inactive) | > 100 µM (inactive) | > 100 µM (inactive) | > 100 µM (inactive) | > 100 µM (inactive) | > 100 µM (inactive) | > 100 µM (inactive) |
| N#Cc1nc(-c2cccc(-c3nc(C#N)c(N)o3)n2)oc1N | > 100 µM (inactive) | > 100 µM (inactive) | > 100 µM (inactive) | > 100 µM (inactive) | > 100 µM (inactive) | > 100 µM (inactive) | > 100 µM (inactive) | > 100 µM (inactive) | > 100 µM (inactive) | > 100 µM (inactive) | > 100 µM (inactive) | > 100 µM (inactive) | > 100 µM (inactive) | > 100 µM (inactive) | > 100 µM (inactive) | > 100 µM (inactive) | > 100 µM (inactive) | > 100 µM (inactive) | > 100 µM (inactive) |
| CC[n+]1c(/C=C/c2ccc(N(CCCl)CCCl)cc2)ccc2cc(I)ccc21 | 1.08 µM (active) | 1.96 µM (inactive) | 0.191 µM (active) | 0.771 µM (active) | 2 µM (inactive) | 0.601 µM (active) | 1.84 µM (inactive) | 0.552 µM (active) | 0.312 µM (active) | 1.24 µM (inactive) | 0.67 µM (active) | 2.74 µM (inactive) | 0.394 µM (active) | 0.979 µM (active) | 1.21 µM (inactive) | 0.335 µM (active) | 1.31 µM (inactive) |  |  |
| CCCc1c(C(=O)OCC)[nH]c(-c2ccc(-c3[nH]c(C(=O)OCC)c(CCC)c3C(=O)OCC)s2)c1C(=O)OCC | 22.1 µM (inactive) | 86.3 µM (inactive) | > 100 µM (inactive) | 48 µM (inactive) | 39.7 µM (inactive) | 87.7 µM (inactive) | 38.8 µM (inactive) | 35.2 µM (inactive) | 32.6 µM (inactive) | 20.6 µM (inactive) | 36.1 µM (inactive) | 62.4 µM (inactive) | 11.8 µM (inactive) | 41 µM (inactive) | 49.8 µM (inactive) | 79.4 µM (inactive) | 37 µM (inactive) |  |  |
| O=C1Oc2cc3c(c4cccc1c24)OCN(c1ccc(Cl)cc1)C3 | > 44.5 µM (inactive) | > 35.8 µM (inactive) | 7.82 µM (inactive) | 11.7 µM (inactive) | 38.8 µM (inactive) | 7.14 µM (inactive) | 11.4 µM (inactive) | 1.37 µM (inactive) | 15.2 µM (inactive) | 27.4 µM (inactive) | 41.9 µM (inactive) | > 58.2 µM (inactive) | > 63.7 µM (inactive) | 4.46 µM (inactive) | 6.97 µM (inactive) | 0.923 µM (active) | 2.31 µM (inactive) |  |  |
